Columns and labels:
[1] = molecular target: PI3K-p110β (Homo sapiens, UniProt P42338); test: Fold isoform selectivity from Ki determination, non-radiometric ADP-Glo assay (Proqinase); assay type: biochemical; conditions: class I PI3K isoforms
From the text: (§1) Fold isoform selectivity inhibition against class I PI3K isoforms, as confirmed following Ki determination using the non-radiometric ADP-Glo™ assay (Promega, Madison, Wis., USA) at Proqinase GmbH is listed below.

[2] = molecular target: PI3K-p110δ (Homo sapiens, UniProt O00329); test: as above; assay type: biochemical; conditions: class I PI3K isoforms
PI3K-p110δ, sequence (O00329 whole entry, canonical isoform): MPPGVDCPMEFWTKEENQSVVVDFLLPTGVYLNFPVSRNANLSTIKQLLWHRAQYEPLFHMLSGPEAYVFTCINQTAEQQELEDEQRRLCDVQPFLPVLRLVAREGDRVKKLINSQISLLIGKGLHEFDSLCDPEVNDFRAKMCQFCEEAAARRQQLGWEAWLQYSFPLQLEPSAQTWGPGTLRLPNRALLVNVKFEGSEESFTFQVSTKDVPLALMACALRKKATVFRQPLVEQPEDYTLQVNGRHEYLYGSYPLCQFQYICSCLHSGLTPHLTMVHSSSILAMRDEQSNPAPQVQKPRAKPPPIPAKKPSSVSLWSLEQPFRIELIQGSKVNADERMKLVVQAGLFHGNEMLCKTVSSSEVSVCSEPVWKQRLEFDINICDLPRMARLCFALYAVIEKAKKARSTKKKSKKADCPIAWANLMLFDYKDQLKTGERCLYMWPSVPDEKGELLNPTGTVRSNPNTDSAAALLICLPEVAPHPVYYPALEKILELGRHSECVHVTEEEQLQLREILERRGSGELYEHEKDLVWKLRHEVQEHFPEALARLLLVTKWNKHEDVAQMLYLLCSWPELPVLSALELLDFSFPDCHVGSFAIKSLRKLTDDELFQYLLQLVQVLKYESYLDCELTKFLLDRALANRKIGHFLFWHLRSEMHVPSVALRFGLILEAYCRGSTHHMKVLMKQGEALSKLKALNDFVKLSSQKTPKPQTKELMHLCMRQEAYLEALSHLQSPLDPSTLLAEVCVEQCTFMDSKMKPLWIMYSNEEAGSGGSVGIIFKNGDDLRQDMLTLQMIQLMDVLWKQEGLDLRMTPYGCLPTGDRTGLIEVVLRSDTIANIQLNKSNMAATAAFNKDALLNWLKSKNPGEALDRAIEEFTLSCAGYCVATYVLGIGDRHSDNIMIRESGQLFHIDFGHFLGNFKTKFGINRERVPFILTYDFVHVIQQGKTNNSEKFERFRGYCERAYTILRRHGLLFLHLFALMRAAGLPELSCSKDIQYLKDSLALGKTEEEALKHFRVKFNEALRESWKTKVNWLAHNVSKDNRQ
PI3K-p110δ, sequence (P27986 whole entry partner, canonical isoform): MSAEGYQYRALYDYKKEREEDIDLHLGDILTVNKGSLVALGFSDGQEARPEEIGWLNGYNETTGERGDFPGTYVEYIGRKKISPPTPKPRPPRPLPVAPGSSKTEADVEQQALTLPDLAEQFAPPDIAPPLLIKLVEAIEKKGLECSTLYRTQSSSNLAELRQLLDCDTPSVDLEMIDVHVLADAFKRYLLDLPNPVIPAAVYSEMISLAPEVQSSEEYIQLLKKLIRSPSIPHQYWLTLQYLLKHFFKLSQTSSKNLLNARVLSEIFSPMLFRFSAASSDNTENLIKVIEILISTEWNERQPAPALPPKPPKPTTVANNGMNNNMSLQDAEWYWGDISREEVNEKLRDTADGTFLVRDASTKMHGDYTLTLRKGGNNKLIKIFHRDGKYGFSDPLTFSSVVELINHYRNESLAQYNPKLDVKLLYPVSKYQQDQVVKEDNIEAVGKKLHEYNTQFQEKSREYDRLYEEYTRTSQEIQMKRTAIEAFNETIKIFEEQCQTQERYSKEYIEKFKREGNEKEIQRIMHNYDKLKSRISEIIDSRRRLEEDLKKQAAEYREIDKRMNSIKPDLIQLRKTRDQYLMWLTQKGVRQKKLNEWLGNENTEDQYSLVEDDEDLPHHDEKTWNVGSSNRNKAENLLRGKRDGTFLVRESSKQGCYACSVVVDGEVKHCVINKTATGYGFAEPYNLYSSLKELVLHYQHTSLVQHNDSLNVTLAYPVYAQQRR
From the text: as §1

[3] = Rodent pharmacokinetics: oral bioavailability and clearance, plasma; assay type: in vivo, mouse; conditions: for clearance: male, CD1, mouse, iv
Description: The following protocol was used to determine oral bioavailability and clearance.
The results are shown below. • Species=male mouse; • Strain=CD1, • n=3 male mice per time point per route; • Terminal blood sampling at 8 time points (5 min, 10 min, 0.5 hr, 1 hr, 3 hr, 6 hr, 8 hr and, 24 hr); • Collection of plasma, bio-analysis and report of pharmacokinetic parameters.
Formulation: 10% DMSO, 15% Cremophor, 75% Saline
Dosing: 10 mg/kg P.O. and 5 mg/kg I.V.
The results are shown below. • Species=male mouse; • Strain=CD1, • n=3 male mice per time point per route; • Terminal blood sampling at 8 time points (5 min, 10 min, 0.5 hr, 1 hr, 3 hr, 6 hr, 8 hr and, 24 hr); • Collection of plasma, bio-analysis and report of pharmacokinetic parameters. • Formulation: 10% DMSO, 90 & saline

[4] = IV, 5 mg/kg, male CD1 mouse plasma, free base
[5] = PO, 10 mg/kg, male CD1 mouse plasma, free base

PI3K-p110β, sequence (P42338 whole entry, canonical isoform): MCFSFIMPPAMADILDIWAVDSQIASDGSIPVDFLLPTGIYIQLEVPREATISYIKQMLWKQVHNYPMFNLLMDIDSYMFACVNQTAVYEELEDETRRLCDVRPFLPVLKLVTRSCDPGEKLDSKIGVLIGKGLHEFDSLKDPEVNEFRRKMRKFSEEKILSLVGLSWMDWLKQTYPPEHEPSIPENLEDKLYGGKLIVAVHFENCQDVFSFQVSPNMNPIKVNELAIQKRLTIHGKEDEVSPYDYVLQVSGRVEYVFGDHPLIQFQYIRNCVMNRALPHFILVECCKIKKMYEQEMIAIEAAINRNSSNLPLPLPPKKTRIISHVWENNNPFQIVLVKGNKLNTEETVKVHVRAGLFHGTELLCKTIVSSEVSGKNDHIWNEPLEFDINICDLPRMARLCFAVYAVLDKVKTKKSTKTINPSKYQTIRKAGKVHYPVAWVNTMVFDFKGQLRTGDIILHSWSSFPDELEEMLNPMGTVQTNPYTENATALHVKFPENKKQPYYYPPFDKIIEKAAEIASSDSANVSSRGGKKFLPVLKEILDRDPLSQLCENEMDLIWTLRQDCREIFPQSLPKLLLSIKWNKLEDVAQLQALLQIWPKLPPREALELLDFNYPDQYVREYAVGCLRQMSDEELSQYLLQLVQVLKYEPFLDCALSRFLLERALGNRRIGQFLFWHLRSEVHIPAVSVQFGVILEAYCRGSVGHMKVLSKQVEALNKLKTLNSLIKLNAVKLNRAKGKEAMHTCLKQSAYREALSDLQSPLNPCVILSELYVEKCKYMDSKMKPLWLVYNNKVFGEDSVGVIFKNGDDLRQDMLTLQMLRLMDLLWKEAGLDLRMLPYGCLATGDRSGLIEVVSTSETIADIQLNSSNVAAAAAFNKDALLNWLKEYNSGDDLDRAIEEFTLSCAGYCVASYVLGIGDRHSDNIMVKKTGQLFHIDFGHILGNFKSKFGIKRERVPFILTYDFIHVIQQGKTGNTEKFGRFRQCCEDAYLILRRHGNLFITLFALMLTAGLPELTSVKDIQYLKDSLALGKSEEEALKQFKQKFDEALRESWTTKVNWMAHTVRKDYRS
PI3K-p110β, sequence (P27986 whole entry partner, canonical isoform): as the sequence (P27986 whole entry partner, canonical isoform) above

Compound | FOLD Ki p110β/p110α [1] | FOLD Ki p110δ/p110α [2] | further results
COC1CN(Cc2cnc3oc4c(N5CCOCC5)nc(-c5c(F)ccc6[nH]ccc56)nc4c3c2)C1 [Example E, 4-(5-Fluoro-1H-indol-4-yl)-12-[(3-methoxyazetidin-1-yl)methyl]-6-(morpholin-4-yl)-8-oxa-3,5,10-triazatricyclo[7.4.0.0^2,7]trideca-1(13),2(7),3,5,9,11-hexaene] | ** (** ≥10x < 50x) | ** (** ≥10x < 50x) | AUC [3, 4]: 2.93 µg·h/mL; AUC(0-inf) [3, 4]: 3.01 µg·h/mL; AUClast [3, 4]: 2.93 µg·h/mL; Cmax [3, 4]: 3.62 µg/mL; Tmax [3, 4]: 4.8 min; Vd [3, 4]: 1.29 L/kg; half-life ([3]; IV, 5 mg/kg, male CD1 mouse plasma, free base, 10% DMSO, 15% Cremophor, 75% Saline): 33 min; AUC [3, 5]: 2.78 µg·h/mL; AUC(0-inf) [3, 5]: 2.83 µg·h/mL; AUC(0-t) [3, 5]: 2.78 µg·h/mL; Cmax [3, 5]: 1.29 µg/mL; Tmax [3, 5]: 30 min; half-life ([3]; PO, 10 mg/kg, male CD1 mouse plasma, free base, 10% DMSO, 15% Cremophor, 75% Saline): 80.4 min; clearance ([3]; plasma, 5 mg/kg, male CD1 mouse plasma, free base): 1.68 L/h/kg; bioavailability ([3]; plasma, oral, 10 mg/kg P.O. and 5 mg/kg I.V., male CD1 mouse, free base, 10% DMSO, 15% Cremophor, 75% Saline, read-out: Oral bioavailability (F)): 47%
c1cc(-c2nc(N3CCOCC3)c3oc4ncc(CN5CCCCC5)cc4c3n2)c2cc[nH]c2c1 [Example I in WO 2011/021038, reference compound] | – | – | clearance ([3]; plasma, 5 mg/kg, 5 mg/kg I.V., male CD1 mouse, mesylate salt, 10% DMSO, 90 & saline): 3.96 L/h/kg
COC1CN(Cc2cnc3oc4c(N5CCOCC5)nc(-c5cc(F)cc6[nH]ccc56)nc4c3c2)C1 [Example I, 4-(6-Fluoro-1H-indol-4-yl)-12-[(3-methoxyazetidin-1-yl)methyl]-6-(morpholin-4-yl)-8-oxa-3,5,10-triazatricyclo[7.4.0.0^2,7]trideca-1(13),2(7),3,5,9,11-hexaene] | *** (*** ≥50x < 100x) | *** (*** ≥50x < 100x) | –
COC1CN(Cc2cnc3sc4c(N5CCOCC5)nc(-c5c(F)ccc6[nH]ccc56)nc4c3c2)C1 [Example K, 4-(5-Fluoro-1H-indol-4-yl)-12-[(3-methoxyazetidin-1-yl)methyl]-6-(morpholin-4-yl)-8-thia-3,5,10-triazatricyclo[7.4.0.0^2,7]trideca-1(13),2(7),3,5,9,11-hexaene] | * (* <10x) | * (* <10x) | –
COC1CN(Cc2cnc3oc4c(N5CCOCC5)nc(-c5ccc(F)c6[nH]ccc56)nc4c3c2)C1 [Example N, 4-(7-Fluoro-1H-indol-4-yl)-12-[(3-methoxyazetidin-1-yl)methyl]-6-(morpholin-4-yl)-8-oxa-3,5,10-triazatricyclo[7.4.0.0^2,7]trideca-1(13),2(7),3,5,9,11-hexaene] | * (* <10x) | ** (** ≥10x < 50x) | –
Fc1ccc2[nH]ccc2c1-c1nc(N2CCOCC2)c2oc3ncc(N4CCOCC4)cc3c2n1 [Example O, 4-(5-Fluoro-1H-indol-4-yl)-6,12-bis(morpholin-4-yl)-8-oxa-3,5,10-triazatricyclo[7.4.0.0^2,7]trideca-1(9),2,4,6,10,12-hexaene] | * (* <10x) | * (* <10x) | –
CCN1CCN(Cc2cnc3oc4c(N5CCOCC5)nc(-c5c(F)ccc6[nH]ccc56)nc4c3c2)CC1=O [Example P] | * (* <10x) | ** (** ≥10x < 50x) | –
COC1CN(Cc2cnc3oc4c(N5CCOCC5)nc(-c5cccc6[nH]cc(F)c56)nc4c3c2)C1 [Example Q] | ** (** ≥10x < 50x) | ** (** ≥10x < 50x) | –

Further lines, with some results ahead:

FOLD Ki p110β/p110α [1] | FOLD Ki p110δ/p110α [2] | Compound | further results
** (** ≥10x < 50x) | *** (*** ≥50x < 100x) | Fc1cc(-c2nc(N3CCOCC3)c3oc4ncc(CN5CCC6(CC5)COC6)cc4c3n2)c2cc[nH]c2c1 [Example B, 4-(6-Fluoro-1H-indol-4-yl)-6-(morpholin-4-yl)-12-{2-oxa-7-azaspiro[3.5]nonan-7-ylmethyl}-8-oxa-3,5,10-triazatricyclo[7.4.0.0^2,7]trideca-1(13),2(7),3,5,9,11-hexaene] | –
*** (*** ≥50x < 100x) | *** (*** ≥50x < 100x) | Fc1ccc2[nH]ccc2c1-c1nc(N2CCOCC2)c2oc3ncc(CN4CCC5(CC4)COC5)cc3c2n1 [Example D, 4-(5-Fluoro-1H-indol-4-yl)-6-(morpholin-4-yl)-12-{2-oxa-7-azaspiro[3.5]nonan-7-ylmethyl}-8-oxa-3,5,10-triazatricyclo[7.4.0.0^2,7]trideca-1(13),2(7),3,5,9,11-hexaene] | –
* (* <10x) | * (* <10x) | COC1CN(Cc2cnc3oc4c(N5CCOCC5)nc(-c5cccc6[nH]c(C(F)(F)F)cc56)nc4c3c2)C1 [Example H, 12-[(3-Methoxyazetidin-1-yl)methyl]-6-(morpholin-4-yl)-4-[2-(trifluoromethyl)-1H-indol-4-yl]-8-oxa-3,5,10-triazatricyclo[7.4.0.0^2,7]trideca-1(13),2(7),3,5,9,11-hexaene] | –
* (* <10x) | * (* <10x) | COC1CN(Cc2cnc3oc4c(N5CCOCC5)nc(-c5cc(C(F)(F)F)cc6[nH]ccc56)nc4c3c2)C1 [Example L, 12-[(3-Methoxyazetidin-1-yl)methyl]-6-(morpholin-4-yl)-4-[6-(trifluoromethyl)-1H-indol-4-yl]-8-oxa-3,5,10-triazatricyclo[7.4.0.0^2,7]trideca-1(13),2(7),3,5,9,11-hexaene] | –

Source: patent publication US10377764B2, “Tricyclic heterocyclic compounds as phosphoinositide 3-kinase inhibitors” (Karus Therapeutics Limited, priority 2015, dated 2019)
